Results on one compound are retold here after patent publication US12275687B2 (priority 2017, dated 2025).

The target in test [1] is BLT1-T4L. Nature of the test: Saturation binding of ^3H-LTB4, BLT1-T4L expressed in P. pastoris (membrane fraction). Further details: species or system guinea pig. As to conditions: saturation binding of ^3H-LTB4, ICL3-10 construct. The source says:
(§1) For the ligand binding assay of BLT1-T4Ls, the T4L cDNA was integrated into the cDNA, encoding the newly generated thermostable BLT1 mutant with the additional mutation V212A, by the consensus method (residues 1-14 deleted and H83G/K88G/V212A/S309A mutations), with the α-factor PrePro signal sequence and the FLAG tag at the N-terminal, and the PreScission site and the His6 tag at the C-terminal of BLT1 (Hori T. et al., 2010, supra) in the pPIC3.5K vector, using the In-Fusion enzyme (FIG. 7A). The expression vectors were introduced into the yeast Pichia pastoris using an EasyComp kit (Thermo Fisher Scientific). BLT1-T4Ls were expressed in 10 ml cultures, and the membrane fraction was prepared as described previously (Hori T. et al., 2010, supra; Hon T. et al., 2015, supra).
(§2) For the evaluation of the ligand-binding activity of the BLT1 mutants and BLT1-T4Ls, a ^3H-LTB4 binding assay was performed using the BLT1-expressing membrane fractions of COS-7, HEK293, or P. pastoris cells, as described previously (Hori T. et al., 2010, supra; Hori T. et al., 2015, supra). For the evaluation of the thermostability, the membrane fraction was heat-treated before the ^3H-LTB4 binding assay.

The target in test [2] is BLT1-T4L. The test is described as follows: Competition assay of ligands against ^3H-LTB4, BLT1-T4L expressed in P. pastoris. The test is classed as binding, guinea pig.
Text: as §1, §2

Test [3] deals with T1, BLT1 (Cavia porcellus, UniProt H0VYV8). The test is described as follows: TGFα shedding assay with benzamidine (G-protein activation by LTB4). As to conditions: for logτA: agonist signaling efficacy; for KA / logKA: equilibrium dissociation constant of LTB4; for logKA: log value as printed; for Em: maximum possible signal response. Further details: expressed in transfected cells. It is filed as cell-based. The protocol: Each point (±s.e.m.) indicates the mean value of three independent experiments, each with triplicate reactions. […] Each point (±s.e.m.) indicates the mean value of three independent experiments, each with triplicate reactions. […] Each point (±s.e.m.) indicates the mean value of triplicate reactions. […] To determine the parameters, three steps of fitting procedures were performed.

Test [4] addresses T1, BLT1. The test is described as follows: Saturation binding assay of ^3H-LTB4 and BLT1 with various concentrations of benzamidine. As to conditions: equilibrium dissociation constant of ^3H-LTB4, global fitting with benzamidine. Also on record: expressed in transfected cells; host or cells: HEK293 (membrane fraction); species or system guinea pig. The method, then:
Each point (±s.e.m.) indicates the mean value of three independent experiments, each with triplicate reactions. […] Each point (±s.e.m.) indicates the mean value of three independent experiments, each with triplicate reactions. […] Each point (±s.e.m.) indicates the mean value of triplicate reactions. For the evaluation of the ligand-binding activity of the BLT1 mutants and BLT1-[…], a ^3H-LTB4 binding assay was performed using the BLT1-expressing membrane fractions of COS-7, HEK293, or P. pastoris cells, as described previously (Hori T. et al., 2010, supra; Hori T. et al., 2015, supra). For the evaluation of the thermostability, the membrane fraction was heat-treated before the ^3H-LTB4 binding assay.

T1 sequence (H0VYV8 1-348): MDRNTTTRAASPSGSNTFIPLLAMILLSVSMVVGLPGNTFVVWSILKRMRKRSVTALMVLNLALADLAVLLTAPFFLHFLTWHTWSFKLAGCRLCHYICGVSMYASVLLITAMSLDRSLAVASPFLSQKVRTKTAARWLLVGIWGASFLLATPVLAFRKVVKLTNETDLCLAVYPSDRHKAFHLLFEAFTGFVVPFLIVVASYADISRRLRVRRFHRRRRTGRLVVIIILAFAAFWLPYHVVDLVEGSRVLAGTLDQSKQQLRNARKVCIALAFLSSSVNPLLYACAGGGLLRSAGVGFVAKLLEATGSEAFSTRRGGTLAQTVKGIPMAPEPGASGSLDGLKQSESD

With `CCCCC/C=C\C[C@@H](O)/C=C/C=C/C=C\[C@@H](O)CCCC(=O)O` [LTB4, leukotriene B4], the Kd (usually the constant that tells how readily two partners part at equilibrium) on BLT1-T4L [1] is 1.2 ± 0.1 nM; on BLT1 [4], 0.6 nM. For the same compound, on BLT1-T4L [2], the affinity, expressed as Ki, was 0.67 nM. For the same compound, the logIC50 in the test with BLT1-T4L [2] (log value (negative)) is listed as −9.0. The logτA worked out at 0.076 on BLT1 [3] (G16, Em = 20) and 0.82 at BLT1 [3] (Gq/i1, in n = 1, Em = 25). Also, the KA entry was “(KA = 9.2 nM)” on BLT1 [3] (G16) and “(KA = 24 nM)” at BLT1 [3] (Gq/i1). Also, the logKA is −8.0 at BLT1 [3] (G16) and −7.6 at BLT1 [3] (Gq/i1). Further, the results for the Em on BLT1 [3] (G16) and at BLT1 [3] (Gq/i1) were 27.6 and 26.7, respectively.
